Assay results published in the supplement of paper PMC10307832.

Tests used:
Assay in all cases: relative viability (nuclei count vs DMSO), 5 days (fraction); higher = more cells survive
HOP-62 = test system: HOP-62
How it was run: (§1)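 Lung cancer cell lines were seeded in 1536-well plates and dosed by pin tool the next day, with either a single drug or a fixed anchor-drug dose combined with five library-drug doses (not always all listed) spaced in √10 steps. Five days later, one step fixed the cells and stained their nuclei (final 0.05% Triton X-100, 1% formaldehyde, 1 ug/ml Hoechst), and nuclei were counted on 4× images. Relative viability is the nuclei count in treated wells divided by the count in vehicle wells, and each value is the median of duplicate plates.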

NCI-H322M = test system: NCI-H322M
How it was run: as §1

NCI-H1755 = test system: NCI-H1755
How it was run: as §1

NCI-H1993 = test system: NCI-H1993
How it was run: as §1

PC-14 = test system: PC-14
How it was run: as §1

NCI-H358 = test system: NCI-H358
How it was run: as §1

NCI-H2170 = test system: NCI-H2170
How it was run: as §1

NCI-H1355 = test system: NCI-H1355
How it was run: as §1

NCI-H2228 = test system: NCI-H2228
How it was run: as §1

SK-MES-1 = test system: SK-MES-1
How it was run: as §1

HARA = test system: HARA
How it was run: as §1

NCI-H838 = test system: NCI-H838
How it was run: as §1

NCI-H2342 = test system: NCI-H2342
How it was run: as §1

NCI-H2347 = test system: NCI-H2347
How it was run: as §1

NCI-H1734 = test system: NCI-H1734
How it was run: as §1

COR-L23 = test system: COR-L23
How it was run: as §1

NCI-H522 = test system: NCI-H522
How it was run: as §1

NCI-H647 = test system: NCI-H647
How it was run: as §1

NCI-H2009 = test system: NCI-H2009
How it was run: as §1

NCI-H1793 = test system: NCI-H1793
How it was run: as §1

NCI-H1395 = test system: NCI-H1395
How it was run: as §1

COR-L 105 = test system: COR-L 105
How it was run: as §1

EKVX = test system: EKVX
How it was run: as §1

UMC-11 = test system: UMC-11
How it was run: as §1

## C[C@@H]1CN(CC(=O)Nc2ccc3c(c2)Cc2cccc(-c4cc(=O)cc(N5CCOCC5)o4)c2S3)C[C@H](C)O1 + N=C(N)NC(=N)NCCc1ccccc1 [Phenformin] (partner 250 µM)
HOP-62; first compound 0.04 µM
  relative viability: 0.613
HOP-62; first compound 0.1265 µM
  relative viability: 0.689
HOP-62; first compound 0.4 µM
  relative viability: 0.715
HOP-62; first compound 4 µM
  relative viability: 0.615
NCI-H322M; first compound 0.04 µM
  relative viability: 0.701
NCI-H322M; first compound 0.1265 µM
  relative viability: 0.74
NCI-H322M; first compound 0.4 µM
  relative viability: 0.729
NCI-H322M; first compound 4 µM
  relative viability: 0.691
NCI-H1755; first compound 0.04 µM
  relative viability: 0.611
NCI-H1755; first compound 0.1265 µM
  relative viability: 0.603
NCI-H1755; first compound 0.4 µM
  relative viability: 0.698
NCI-H1755; first compound 4 µM
  relative viability: 0.586
NCI-H1993; first compound 0.04 µM
  relative viability: 0.532
NCI-H1993; first compound 0.1265 µM
  relative viability: 0.497
NCI-H1993; first compound 0.4 µM
  relative viability: 0.481
NCI-H1993; first compound 4 µM
  relative viability: 0.498
PC-14; first compound 0.04 µM
  relative viability: 0.377
PC-14; first compound 0.1265 µM
  relative viability: 0.528
PC-14; first compound 0.4 µM
  relative viability: 0.556
PC-14; first compound 4 µM
  relative viability: 0.574
NCI-H358; first compound 0.04 µM
  relative viability: 0.362
NCI-H358; first compound 0.1265 µM
  relative viability: 0.28
NCI-H358; first compound 0.4 µM
  relative viability: 0.371
NCI-H358; first compound 4 µM
  relative viability: 0.28
NCI-H2170; first compound 0.04 µM
  relative viability: 0.406
NCI-H2170; first compound 0.1265 µM
  relative viability: 0.43
NCI-H2170; first compound 0.4 µM
  relative viability: 0.44
NCI-H2170; first compound 4 µM
  relative viability: 0.412
NCI-H1355; first compound 0.04 µM
  relative viability: 0.455
NCI-H1355; first compound 0.1265 µM
  relative viability: 0.482
NCI-H1355; first compound 0.4 µM
  relative viability: 0.433
NCI-H1355; first compound 4 µM
  relative viability: 0.43
NCI-H2228; first compound 0.04 µM
  relative viability: 0.356
NCI-H2228; first compound 0.1265 µM
  relative viability: 0.406
NCI-H2228; first compound 0.4 µM
  relative viability: 0.287
NCI-H2228; first compound 4 µM
  relative viability: 0.289
SK-MES-1; first compound 0.04 µM
  relative viability: 0.723
SK-MES-1; first compound 0.1265 µM
  relative viability: 0.652
SK-MES-1; first compound 0.4 µM
  relative viability: 0.665
SK-MES-1; first compound 4 µM
  relative viability: 0.546
HARA; first compound 0.1265 µM
  relative viability: 0.357
HARA; first compound 0.4 µM
  relative viability: 0.436
HARA; first compound 4 µM
  relative viability: 0.467
NCI-H838; first compound 0.04 µM
  relative viability: 0.527
NCI-H838; first compound 0.1265 µM
  relative viability: 0.54
NCI-H838; first compound 0.4 µM
  relative viability: 0.497
NCI-H838; first compound 4 µM
  relative viability: 0.374
NCI-H2342; first compound 0.04 µM
  relative viability: 0.625
NCI-H2342; first compound 0.1265 µM
  relative viability: 0.568
NCI-H2342; first compound 0.4 µM
  relative viability: 0.525
NCI-H2342; first compound 4 µM
  relative viability: 0.519
NCI-H2347; first compound 0.04 µM
  relative viability: 0.412
NCI-H2347; first compound 0.1265 µM
  relative viability: 0.547
NCI-H2347; first compound 0.4 µM
  relative viability: 0.368
NCI-H2347; first compound 4 µM
  relative viability: 0.449
NCI-H1734; first compound 0.04 µM
  relative viability: 0.429
NCI-H1734; first compound 0.1265 µM
  relative viability: 0.392
NCI-H1734; first compound 0.4 µM
  relative viability: 0.366
NCI-H1734; first compound 4 µM
  relative viability: 0.399
COR-L23; first compound 0.04 µM
  relative viability: 0.435
COR-L23; first compound 0.1265 µM
  relative viability: 0.476
COR-L23; first compound 0.4 µM
  relative viability: 0.499
COR-L23; first compound 4 µM
  relative viability: 0.439
NCI-H522; first compound 0.04 µM
  relative viability: 0.72
NCI-H522; first compound 0.1265 µM
  relative viability: 0.718
NCI-H522; first compound 0.4 µM
  relative viability: 0.635
NCI-H522; first compound 4 µM
  relative viability: 0.608
NCI-H647; first compound 0.04 µM
  relative viability: 0.472
NCI-H647; first compound 0.1265 µM
  relative viability: 0.456
NCI-H647; first compound 0.4 µM
  relative viability: 0.606
NCI-H647; first compound 4 µM
  relative viability: 0.504
NCI-H2009; first compound 0.04 µM
  relative viability: 0.525
NCI-H2009; first compound 0.1265 µM
  relative viability: 0.494
NCI-H2009; first compound 0.4 µM
  relative viability: 0.453
NCI-H2009; first compound 4 µM
  relative viability: 0.384
NCI-H1793; first compound 0.04 µM
  relative viability: 0.347
NCI-H1793; first compound 0.1265 µM
  relative viability: 0.339
NCI-H1793; first compound 0.4 µM
  relative viability: 0.272
NCI-H1793; first compound 4 µM
  relative viability: 0.273
NCI-H1395; first compound 0.04 µM
  relative viability: 0.495
NCI-H1395; first compound 0.1265 µM
  relative viability: 0.456
NCI-H1395; first compound 0.4 µM
  relative viability: 0.417
NCI-H1395; first compound 4 µM
  relative viability: 0.405
COR-L 105; first compound 0.04 µM
  relative viability: 0.503
COR-L 105; first compound 0.1265 µM
  relative viability: 0.444
COR-L 105; first compound 0.4 µM
  relative viability: 0.552
COR-L 105; first compound 4 µM
  relative viability: 0.468
EKVX; first compound 0.04 µM
  relative viability: 0.23
EKVX; first compound 0.1265 µM
  relative viability: 0.25
EKVX; first compound 0.4 µM
  relative viability: 0.234
EKVX; first compound 4 µM
  relative viability: 0.221
UMC-11; first compound 0.04 µM
  relative viability: 0.363
UMC-11; first compound 0.1265 µM
  relative viability: 0.33
UMC-11; first compound 0.4 µM
  relative viability: 0.338
UMC-11; first compound 4 µM
  relative viability: 0.288
